According to publication PMC4138103 (PLoS ONE, 2014):

System: Sprague-Dawley rats
Assay: Organ weights
Assay type: in vivo, Rattus norvegicus
Experimental: At the end of the treatment period (males on study day 28–31, females on study day 28–32) the rats were anesthetized with CO2/O2 (70/30%). Blood samples were drawn from the left ventricle using Venoject needles (Terumo) and Vacuette EDTA and serum blood collection tubes, and the rats were killed by exsanguination. EDTA blood was used for hematology investigations (see below). Serum was separated, divided into aliquots, frozen in liquid nitrogen and stored at −70°C for further analysis (see below). A complete necropsy (macroscopic observations, tissue sampling for molecular biology, biochemistry, histopathology, analytical chemistry and organ weights) was performed on each rat. The weights of the following organs were recorded: adrenals, brain, epididymides, heart, kidneys, liver, lungs, ovaries, pituitary, prostate (ventral), seminal vesicles, spleen, testes, thymus, thyroids (with parathyroids) and uterus. For molecular biology and biochemical analyses samples from brain, liver, kidney, bones, and several other tissues were snap frozen in liquid nitrogen and stored at −80°C for further analysis. […] Tissue samples for histopathology were preserved in 10% neutral buffered formalin except testis and epididymis, which were fixed in Bouin's solution for 24 h after which they were transferred into 70% ethanol.
Data were also analyzed using the BMD method, which is based on dose-response modeling of the full data set using a nested family of exponential and Hill models. The analyses were done on data of males and females combined, using sex as a covariate. […] In that case, different Critical Effect Doses (CEDs) and CEDs at the lowest bound of the confidence interval (CED-L) were generated for each sex. If no difference between sexes is detected, a CED and CED-Ls for the combined data is generated. However, this was also done if the curve fits are close, and separate analyses for males and females were then performed manually. CEDs and CED-Ls were calculated at the predefined Critical Effect Size (CES) of 5% (EFSA standard) or 10%.

[1] = females, total dose 1000 mg/kg bw, group mean
[2] = females, total dose 1700 mg/kg bw, group mean
[3] = males, CES 5%, total dose based
[4] = males, CES 10%, total dose based
[5] = males, adipose tissue concentration based
[6] = males, total dose 3 mg/kg bw, group mean
[7] = males, total dose 10 mg/kg bw, group mean
[8] = males, total dose 30 mg/kg bw, group mean
[9] = males, total dose 100 mg/kg bw, group mean
[10] = males, total dose 300 mg/kg bw, group mean
[11] = males, total dose 1000 mg/kg bw, group mean
[12] = males, total dose 1700 mg/kg bw, group mean

Clc1cc(Cl)c(-c2cc(Cl)c(Cl)c(Cl)c2Cl)cc1Cl [PCB 180, 2,2′,3′,4,4′,5,5′-heptachlorobiphenyl]
Organ weight, Spleen [1]: 0.700 g | Organ weight, Thymus [1]: 0.528 g | Organ weight, Thyroid gland [1]: 0.0158 g | Organ weight, Uterus [1]: 0.374 g | Organ weight, Adrenals [2]: 0.0657 g | Organ weight, Brain [2]: 1.60 g | Organ weight, Heart [2]: 0.900 g | Organ weight, Kidneys [2]: 1.40 g | Organ weight, Ovaries [2]: 0.102 g | Organ weight, Pituitary [2]: 0.0108 g | Organ weight, Spleen [2]: 0.664 g | Organ weight, Thymus [2]: 0.560 g | Organ weight, Thyroid gland [2]: 0.0160 g | Organ weight, Uterus [2]: 0.366 g | Dose response, Thyroid gland weight (males, total dose 0-1700 mg/kg bw): D, T | Liver weight, CED [3]: 11.6 mg/kg bw | Liver weight, CED-L [3]: 5.48 mg/kg bw | Thyroid gland weight, CED [3]: 239 mg/kg bw | Thyroid gland weight, CED-L [3]: 168 mg/kg bw | Liver weight, CED [4]: 24.2 mg/kg bw | Liver weight, CED-L [4]: 11.4 mg/kg bw | Thyroid gland weight, CED [4]: 467 mg/kg bw | Thyroid gland weight, CED-L [4]: 328 mg/kg bw | Liver weight, CED [5]: 42.3 µg/g lipid | Thyroid weight, CED [5]: 1030 µg/g lipid | Organ weight, Adrenals [6]: 0.0472 g | Organ weight, Brain [6]: 1.65 g | Organ weight, Epididymides [6]: 0.972 g | Organ weight, Heart [6]: 1.27 g | Organ weight, Kidneys [6]: 2.00 g | Organ weight, Pituitary [6]: 0.0091 g | Organ weight, Seminal vesicles [6]: 0.915 g | Organ weight, Spleen [6]: 0.828 g | Organ weight, Testis L [6]: 1.82 g | Organ weight, Testis R [6]: 1.82 g | Organ weight, Thymus [6]: 0.632 g | Organ weight, Thyroid gland [6]: 0.0210 g | Organ weight, Ventral prostate [6]: 0.492 g | Organ weight, Adrenals [7]: 0.0514 g | Organ weight, Brain [7]: 1.75 g | Organ weight, Epididymides [7]: 0.952 g | Organ weight, Heart [7]: 1.17 g | Organ weight, Kidneys [7]: 2.15 g | Organ weight, Pituitary [7]: 0.0088 g | Organ weight, Seminal vesicles [7]: 0.983 g | Organ weight, Spleen [7]: 0.828 g | Organ weight, Testis L [7]: 1.92 g | Organ weight, Testis R [7]: 1.88 g | Organ weight, Thymus [7]: 0.594 g | Organ weight, Thyroid gland [7]: 0.0221 g | Organ weight, Ventral prostate [7]: 0.451 g | Organ weight, Adrenals [8]: 0.0665 g | Organ weight, Brain [8]: 1.72 g | Organ weight, Epididymides [8]: 1.030 g | Organ weight, Heart [8]: 1.31 g | Organ weight, Kidneys [8]: 2.09 g | Organ weight, Pituitary [8]: 0.0098 g | Organ weight, Seminal vesicles [8]: 0.966 g | Organ weight, Spleen [8]: 0.876 g | Organ weight, Testis L [8]: 1.79 g | Organ weight, Testis R [8]: 1.78 g | Organ weight, Thymus [8]: 0.764 g | Organ weight, Thyroid gland [8]: 0.0227 g | Organ weight, Ventral prostate [8]: 0.518 g | Organ weight, Adrenals [9]: 0.0513 g | Organ weight, Brain [9]: 1.70 g | Organ weight, Epididymides [9]: 0.992 g | Organ weight, Heart [9]: 1.20 g | Organ weight, Kidneys [9]: 2.13 g | Organ weight, Pituitary [9]: 0.0107 g | Organ weight, Seminal vesicles [9]: 1.015 g | Organ weight, Spleen [9]: 0.826 g | Organ weight, Testis L [9]: 1.88 g | Organ weight, Testis R [9]: 1.88 g | Organ weight, Thymus [9]: 0.770 g | Organ weight, Thyroid gland [9]: 0.0236 g | Organ weight, Ventral prostate [9]: 0.521 g | Organ weight, Adrenals [10]: 0.0407 g | Organ weight, Brain [10]: 1.74 g | Organ weight, Epididymides [10]: 0.966 g | Organ weight, Heart [10]: 1.23 g | Organ weight, Kidneys [10]: 2.11 g | Organ weight, Pituitary [10]: 0.0098 g | Organ weight, Seminal vesicles [10]: 1.038 g | Organ weight, Spleen [10]: 0.858 g | Organ weight, Testis L [10]: 1.87 g | Organ weight, Testis R [10]: 1.85 g | Organ weight, Thymus [10]: 0.690 g | Organ weight, Thyroid gland [10]: 0.0266 g | Organ weight, Ventral prostate [10]: 0.536 g | Organ weight, Adrenals [11]: 0.0450 g | Organ weight, Brain [11]: 1.71 g | Organ weight, Epididymides [11]: 0.974 g | Organ weight, Heart [11]: 1.12 g | Organ weight, Kidneys [11]: 2.18 g | Organ weight, Pituitary [11]: 0.0115 g | Organ weight, Seminal vesicles [11]: 1.210 g | Organ weight, Spleen [11]: 0.858 g | Organ weight, Testis L [11]: 1.89 g | Organ weight, Testis R [11]: 1.85 g | Organ weight, Thymus [11]: 0.686 g | Organ weight, Thyroid gland [11]: 0.0294 g | Organ weight, Ventral prostate [11]: 0.566 g | Organ weight, Adrenals [12]: 0.0463 g | Organ weight, Brain [12]: 1.68 g | Organ weight, Epididymides [12]: 0.952 g | Organ weight, Heart [12]: 1.16 g | Organ weight, Kidneys [12]: 2.03 g | Organ weight, Pituitary [12]: 0.0089 g | Organ weight, Seminal vesicles [12]: 0.947 g | Organ weight, Spleen [12]: 0.800 g | Organ weight, Testis L [12]: 1.84 g | Organ weight, Testis R [12]: 1.88 g | Organ weight, Thymus [12]: 0.772 g | Organ weight, Ventral prostate [12]: 0.461 g | Thymus weight (rat, in vivo): not decreased
